# Test results as given in patent US12653191B2, “Active compound combinations” (Bayer Aktiengesellschaft, priority 2020, dated 2026).
# Values joined by “and” are separate entries in the source; they are usually repeats but may differ in a detail not shown here. Equal values may be shown once.
# How the values were obtained:
# Cercospora beticola [1] = test: in vitro-Test with fungal microorganisms, Method A (tables C1-C10); assay type: cell-based
# Summary of the method: (§1)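 First, compound in methanol with alkylaryl-polyglycol-ether was dried down in the plate. Next, spore or mycelium suspension in potato dextrose broth was added and extinction read at 620 nm. After 3-5 days at 20° C, 85% RH, reading was repeated and efficacy scored against untreated wells.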
# Botrytis cinerea [2] = test: in vitro-Test with fungal microorganisms, Method B (tables B15-B18); assay type: cell-based; details: alone
# Summary of the method: (§2)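 Cpd in MeOH + alkylaryl-polyglycol-ether, solvent evaporated; liquid medium + fungal spores/mycelium added; OD600 read; 3–7 d, 20° C., 85% RH; growth inhibition by photometry, % efficacy vs untreated ctrl.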
# Cercospora beticola [3] = test: in vitro-Test with fungal microorganisms, Method B (tables C11-C20); assay type: cell-based; details: single compound
# Summary of the method: as §2
# [4] = system: Ustilago segetum var. avenae; test: in vitro-Test with fungal microorganisms, Method B (tables I6-I11); assay type: cell-based
# Summary of the method: as §2
# [5] = system: Colletotrichum lindemuthianum; test: in vitro-Test with fungal microorganisms, Method A (tables D1-D8); assay type: cell-based
# Summary of the method: as §1
# Cordana musae [6] = test: in vitro-Test with fungal microorganisms, Method A (tables E1-E8); assay type: cell-based; details: single substance
# Summary of the method: as §1
# Diaporthe citri [7] = test: in vitro-Test with fungal microorganisms, Method A (tables F1-F11); assay type: cell-based
# Summary of the method: as §1
# Fusarium culmorum = test: in vitro-Test with fungal microorganisms, Method B (tables G5-G15); assay type: cell-based
# Summary of the method: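 Read photometrically at 600 nm after 3-7 days at 20° C and 85% relative humidity, Fusarium culmorum growth inhibition is expressed against untreated control. Wells hold solvent-evaporated compound (from methanol/emulsifier) overlaid with spore- or mycelium-amended growth medium.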
# Alternaria alternate = test: in vitro-Test with fungal microorganisms, Method A (tables A1-A12); assay type: cell-based, Alternaria alternata; details: applied alone
# Summary of the method: as §1
# Botrytis cinerea [8] = test: in vitro-Test with fungal microorganisms, Method A (tables B1-B14); assay type: cell-based; details: for Efficacy %: alone
# Summary of the method: as §1
# Alternaria alternata = test: in vitro-Test with fungal microorganisms, Method B (tables A13-A22); assay type: cell-based
# Summary of the method: as §2
# Parastagonospora nodorum = test: in vitro-Test with fungal microorganisms, Method A (tables H1-H4); assay type: cell-based
# Description: Example: In Vitro-Test with Fungal Microorganisms
# Wells of 96-well microtiter plates are filled with 10 μl of a preparation of test compound or compound combination in methanol+emulsifier alkylaryl-polyglycol-ether. Thereafter, the solvent is evaporated in a hood. At the next step, 100 μl of liquid potato dextrose medium is given into each well, that has been amended with an appropriate concentration of spores or mycelium suspension of the test fungus.
# With the aid of a photometer, the extinction in all wells is measured at the wavelength of 620 nm.
# The microtiter plates are incubated at 20° C. and 85% relative humidity. The inhibition of growth is determined again photometrically 3-5 days after the application. Efficacy is calculated in relation to the untreated control, 0% efficacy means fungal growth as high as in untreated control while 100% efficacy means no fungal growth is measured.
# The data in tables A1 to A12, B1 to B14, C1 to C10, D1 to D8, E1 to E8, F1 to F11, G1 to G4, H1 to H4 and I1 to I5 were collected according to Method A. The data in tables A13 to A22, B15 to B18, C11 to C20, E9 to E16, F12 to F15, G5 to G15, H5 to H8, I6 to I11 and J1 to J11 were collected according to Method B.
# Diaporthe citri [9] = test: in vitro-Test with fungal microorganisms, Method B (tables F12-F15); assay type: cell-based
# Summary of the method: as §2
# [10] = system: Ustilago segetum var. avenae; test: in vitro-Test with fungal microorganisms, Method A (tables I1-I5); assay type: cell-based; details: alone
# Summary of the method: as §1
# Colletotrichum coccodes = test: in vitro-Test with fungal microorganisms, Method B (tables J1-J11); assay type: cell-based
# Summary of the method: as §2
# Cordana musae [11] = test: in vitro-Test with fungal microorganisms, Method B (tables E9-E16); assay type: cell-based; details: for Efficacy: single active; for Efficacy %: single substance
# Summary of the method: as §2
compound,measurement,setting,value
"COc1ccnc(C(=O)N[C@H]2COC(=O)[C@H](Cc3ccccc3)[C@@H](OC(=O)C(C)C)[C@H](C)OC2=O)c1OCOC(=O)C(C)C [(3.025) fenpicoxamid, fenpicoxamid]",Efficacy %,Cercospora beticola [1]; 0.04 ppm,0%
same,Efficacy %,Cercospora beticola [1]; 0.2 ppm,2%
same,Efficacy %,Cercospora beticola [1]; 0.2 ppm alone,41% and 35%
same,Efficacy %,Cercospora beticola [1]; 1.0 ppm,20%
same,Efficacy %,Cercospora beticola [1]; 1.0 ppm alone,62% and 53%
same,Efficacy %,Cercospora beticola [1]; 5.0 ppm,98%
same,Efficacy %,Cercospora beticola [1]; 5.0 ppm alone,92% and 88%
same,Efficacy %,Botrytis cinerea [2]; 0.008 ppm,0%
same,Efficacy %,Botrytis cinerea [2]; 0.2 ppm,14%
same,Efficacy %,Botrytis cinerea [2]; 1 ppm,52%
same,Efficacy %,Cercospora beticola [3]; 0.008 ppm,0%
same,Efficacy %,Cercospora beticola [3]; 0.2 ppm,17% and 31%
same,Efficacy %,Cercospora beticola [3]; 1 ppm,97% and 100%
same,Efficacy %,[4]; 0.008 ppm,14%
same,Efficacy %,[4]; 0.04 ppm,6%
same,Efficacy %,[4]; 0.2 ppm,1%
same,Efficacy %,[5]; single active at 0.04 ppm,0%
same,Efficacy %,[5]; single active at 0.2 ppm,5%
same,Efficacy %,[5]; single active at 1.0 ppm,69% and 66%
same,Efficacy %,[5]; single active at 5.0 ppm,79% and 86%
same,Efficacy %,Cordana musae [6]; 1.0 ppm,40%
same,Efficacy %,Cordana musae [6]; 5.0 ppm,80%
same,Efficacy,"Diaporthe citri [7]; applied alone, 0.04 ppm",3%
same,Efficacy,"Diaporthe citri [7]; applied alone, 1.0 ppm",79% and 66%
same,Efficacy,"Diaporthe citri [7]; applied alone, 5.0 ppm",92%
same,Efficacy,Fusarium culmorum; 0.008 ppm alone,10%
same,Efficacy,"Fusarium culmorum; single active compound, 0.008 ppm",7% and 5%
same,Efficacy,"Fusarium culmorum; single active compound, 0.04 ppm",1% and 9%
same,Efficacy,"Fusarium culmorum; single active compound, 0.2 ppm",18% and 25%
same,Efficacy,"Fusarium culmorum; single active compound, 1 ppm",17%
same,Efficacy %,Alternaria alternate; 0.04 ppm,5% and 9%
same,Efficacy %,Alternaria alternate; 0.2 ppm,2% and 7%
same,Efficacy %,Alternaria alternate; 1.0 ppm,41% and 30%
same,Efficacy %,Alternaria alternate; 5.0 ppm,76% and 59%
same,Efficacy,Botrytis cinerea [8]; 0.04 ppm,6%
same,Efficacy,Botrytis cinerea [8]; 0.2 ppm,6%
same,Efficacy,Botrytis cinerea [8]; 1.0 ppm,21%
same,Efficacy %,Botrytis cinerea [8]; 0.04 ppm,15%
same,Efficacy %,Botrytis cinerea [8]; 0.2 ppm,9%
same,Efficacy %,Botrytis cinerea [8]; 1.0 ppm,15%
same,Efficacy %,Botrytis cinerea [8]; 5.0 ppm,45%
same,Efficacy,"Alternaria alternata; single compound, 0.008 ppm",6%
same,Efficacy,"Alternaria alternata; single compound, 0.04 ppm",14%
same,Efficacy,"Alternaria alternata; single compound, 1 ppm",61%
same,Efficacy,Parastagonospora nodorum; 0.04 ppm,19%
same,Efficacy,Parastagonospora nodorum; 0.2 ppm,61%
same,Efficacy,Parastagonospora nodorum; 1.0 ppm,64%
same,Efficacy,Parastagonospora nodorum; 5.0 ppm,72%
same,Efficacy,"Diaporthe citri [9]; Table F12, 0.008 ppm alone",0%
same,Efficacy,"Diaporthe citri [9]; Table F12, 0.2 ppm alone",83%
same,Efficacy,"Diaporthe citri [9]; Table F12, 1 ppm alone",94%
same,Efficacy,"Diaporthe citri [9]; Table F13, 0.2 ppm alone",79%
same,Efficacy %,[10]; 0.04 ppm,0%
same,Efficacy %,[10]; 0.2 ppm,0%
same,Efficacy %,[10]; 1.0 ppm,0%
same,Efficacy %,[10]; 5.0 ppm,0%
same,Efficacy %,Colletotrichum coccodes; single active compound at 0.2 ppm,23% and 33%
same,Efficacy %,Colletotrichum coccodes; single active compound at 1 ppm,16%
same,Efficacy,Cordana musae [11]; 0.2 ppm,44%
same,Efficacy %,Cordana musae [11]; 0.008 ppm,0%
same,Efficacy %,Cordana musae [11]; 0.2 ppm,52%
mancozeb [(5.013) mancozeb],Efficacy %,Cercospora beticola [1]; 0.08 ppm,4% and 0%
same,Efficacy %,Cercospora beticola [1]; 0.08 ppm alone,0%
same,Efficacy %,Cercospora beticola [1]; 0.4 ppm alone,0%
same,Efficacy %,Cercospora beticola [1]; 2.0 ppm,100%
same,Efficacy %,Cercospora beticola [1]; 2.0 ppm alone,100%
same,Efficacy %,Cercospora beticola [1]; 10.0 ppm,100%
same,Efficacy %,"Cercospora beticola [1]; 10.0 ppm, alone",100%
same,Efficacy %,Botrytis cinerea [2]; 0.8 ppm,0% and 4%
same,Efficacy %,Cercospora beticola [3]; 0.8 ppm,0%
same,Efficacy %,[5]; single active at 0.08 ppm,4%
same,Efficacy %,[5]; single active at 0.4 ppm,0%
same,Efficacy %,[5]; single active at 10.0 ppm,100%
same,Efficacy %,Cordana musae [6]; 0.08 ppm,0%
same,Efficacy %,Cordana musae [6]; 0.4 ppm,0% and 3%
same,Efficacy %,Cordana musae [6]; 2.0 ppm,31% and 32%
same,Efficacy %,Cordana musae [6]; 10.0 ppm,100%
same,Efficacy,"Diaporthe citri [7]; Table F10, 0.08 ppm alone",0%
same,Efficacy,"Diaporthe citri [7]; Table F10, 0.4 ppm alone",46%
same,Efficacy,"Diaporthe citri [7]; Table F10, 2.0 ppm alone",100%
same,Efficacy,"Diaporthe citri [7]; Table F10, 10.0 ppm alone",100%
same,Efficacy,"Diaporthe citri [7]; applied alone, 0.08 ppm",6%
same,Efficacy,"Diaporthe citri [7]; applied alone, 0.4 ppm",21%
same,Efficacy,"Diaporthe citri [7]; applied alone, 2.0 ppm",100%
same,Efficacy,"Diaporthe citri [7]; applied alone, 10.0 ppm",100%
same,Efficacy,"Diaporthe citri [7]; single active, 0.08 ppm",2%
same,Efficacy,"Diaporthe citri [7]; single active, 0.4 ppm",0%
same,Efficacy,"Diaporthe citri [7]; single active, 2.0 ppm",46%
same,Efficacy,"Diaporthe citri [7]; single active, 10.0 ppm",100%
same,Efficacy,"Fusarium culmorum; single active compound, 0.8 ppm",0%
same,Efficacy,"Fusarium culmorum; single active compound, 4 ppm",16%
same,Efficacy,"Fusarium culmorum; single active compound, 20 ppm",50% and 31%
same,Efficacy,Botrytis cinerea [8]; 0.4 ppm,0%
same,Efficacy,Botrytis cinerea [8]; 2.0 ppm,0%
same,Efficacy,Botrytis cinerea [8]; 10.0 ppm,33%
same,Efficacy %,Botrytis cinerea [8]; 0.8 ppm,15%
same,Efficacy %,Botrytis cinerea [8]; 4.0 ppm,0%
same,Efficacy %,Botrytis cinerea [8]; 20.0 ppm,15%
same,Efficacy %,Botrytis cinerea [8]; 100.0 ppm,83%
same,Efficacy,Alternaria alternata; 0.8 ppm,4%
same,Efficacy,Alternaria alternata; 4 ppm,36%
same,Efficacy,Alternaria alternata; 20 ppm,63%
same,Efficacy,Parastagonospora nodorum; 0.08 ppm,0%
same,Efficacy,Parastagonospora nodorum; 0.4 ppm,5%
same,Efficacy,Parastagonospora nodorum; 2.0 ppm,37%
same,Efficacy,Parastagonospora nodorum; 10.0 ppm,100%
same,Efficacy,"Diaporthe citri [9]; Table F14, 0.8 ppm alone",0%
same,Efficacy,"Diaporthe citri [9]; Table F14, 4 ppm alone",78%
same,Efficacy,"Diaporthe citri [9]; Table F14, 20 ppm alone",99%
same,Efficacy %,[10]; 0.08 ppm,3%
same,Efficacy %,[10]; 0.4 ppm,0%
same,Efficacy %,[10]; 2.0 ppm,10%
same,Efficacy %,[10]; 10.0 ppm,98%
same,Efficacy %,Colletotrichum coccodes; single active compound at 0.8 ppm,0%
same,Efficacy %,Colletotrichum coccodes; single active compound at 4 ppm,0%
same,Efficacy %,Colletotrichum coccodes; single active compound at 20 ppm,100%
same,Efficacy,Cordana musae [11]; 0.8 ppm,0%
same,Efficacy,Cordana musae [11]; 4 ppm,14% and 19%
same,Efficacy,Cordana musae [11]; 20 ppm,100%
